Values of other authors, collected in patent EP0062861A1, “Isophorone-free formulations of the herbicide propanyl” (Montedison S.p.A., priority 1981, dated 1982).

Test system: mammalians
Details: toxicity towards mammalians

CCC(=O)Nc1ccc(Cl)c(Cl)c1 [Propanyl, N-(3,4-dichlorophenyl)-propionamide]
LD 50: 1384 mg/kg
